From patent US8367051B2, “Preparation of functional gel particles with a dual crosslink network” (Carnegie Mellon University, priority 2006, dated 2013) come the findings set out here.

For the data set, the system named is HeLa cells. The data set is described as follows: Doxorubicin release from nanogels in cell media, live/dead cell assay. Type of data set: cell-based. The settings on record: after addition of glutathione (nanogels) or free Dox (control wells); control 93%; free Dox amount 6-7 times larger. As for the experimental part:
Doxorubicin release from nanogels in cell media. Using standard cell culture techniques, 5×10^4 HeLa cells were added to each well of a 24-well plate and cultured in complete DMEM for 24 h to permit cell attachment to the surface. After this time period, Dox-loaded nanogel (16%, 1.5 mg) was added to four wells (for each nanogel sample), leaving 12 wells with no gel to serve at control. After another 24 hours (48 hours total), the media was removed from 10 of the wells (6 samples, 4 controls) and a live/dead cell assay was performed to measure the toxicity of the gel before addition of the reducing agent. After performing this analysis, glutathione (0.2 mg) dissolved in sterile PBS, was added to each well containing the nanogels and 6 of the control wells. Additionally, free Dox (1 mg) was added to 3 of the control wells. […]
To confirm the non-limiting exemplary concept that Dox-loaded nanogels will be degraded upon the addition of glutathione in cellular media and in turn, the released Dox molecules will kill cancer cells, HeLa cancer cells were incubated with and without 16.4% Dox-loaded nanogels. The cell viability was measured at the 48-hour time point using live/dead staining to estimate the cytotoxicity of the Dox-loaded nanogel before addition of the reducing agent. […]

In the case of `COc1cccc2c1C(=O)c1c(O)c3c(c(O)c1C2=O)C[C@@](O)(C(=O)CO)C[C@@H]3O[C@H]1C[C@H](N)[C@H](O)[C@H](C)O1.Cl` [free Dox, doxorubicin hydrochloride], the “cell viability of HeLa cells after Dox release” value came out at 7%.
